From patent US20020012979A1, “VITAMIN C PRODUCTION IN MICROORGANISMS AND PLANTS” (priority 1998, published 2002)

Test system: strain NA45-3 (ATCC 209681)
Test: Effect of magnesium on AA production from substrates by strain NA45-3
Type: cell-based, Prototheca moriformis
Details: 24 hours; for conversion to AA, effect of magnesium in the resuspension buffer: NA45-3 grown Mg-limited, substrate 20 g/L

SMILES: O=C1O[C@H]([C@@H](O)CO)[C@@H](O)[C@@H]1O [L-galactono-γ-lactone]
- AA accumulation by cells grown under magnesium-sufficient conditions (NA45-3, substrate 20 g/L, regardless of magnesium in resuspension broth): enhanced
- conversion to AA, effect of magnesium in the resuspension buffer: unaffected

SMILES: O=C[C@@H](O)[C@@H](O)[C@H](O)[C@H](O)CO [D-mannose]
- conversion to AA, effect of magnesium in the resuspension buffer: unaffected
